Read-outs that look alike come from different tables or passages of the source. No end group written: not given here.
Tests used:
[1] = test system: Mycobacterium smegmatis ATCC 607; format: cell-based; details: BHI, 48 h, 37 °C, BacTiter-Glo, n = 4
Method: (§1) The strains that were used in this study (Table 2 and Table S1) were cultivated at 37 °C in cation-adjusted Mueller–Hinton broth (CAMB) in Erlenmeyer flasks, or on the same medium with agar in Petri dishes. Exceptionally, Mycobacterium smegmatis was cultivated at 37 °C in brain heart infusion (BHI) medium that was supplemented with 1% Tween-80 in Erlenmeyer flasks, or on the same medium lacking detergent but with agar in Petri dishes. Strains listed with Robert Koch Institute (RKI) strain numbers are clinical isolates from the RKI strain collection originating from hospitalized patients in Germany. The remaining strains originated from the Sanofi strain collection and they were originally purchased from the American Type Culture Collection or the German Collection of Microorganisms and Cell Cultures. Meropenem/colistin-resistant strains were maintained, as described above, with the appropriate antibiotic added at levels below the minimal inhibitory concentration (MIC).
(§2) The MIC values were determined in 384-well microtiter plates with an assay volume of 20 µL. Immediately before each assay, the cultures of test organisms (bacteria grown for 18 h, Candida albicans and M. smegmatis grown for 48 h) were diluted with the appropriate medium to a density of 1 × 10^6 cells/mL (C. albicans), 1 × 10^5 cells/mL (M. smegmatis) or 5 × 10^5 cells per mL (other species). […] We transferred 2-µL aliquots from this dilution series to new 384-well microtiter plates while using a CyBio-Well 384-channel automated pipettor (Analytic Jena, Jena, Germany) and added 18 µL of the diluted suspension of each test species using a Viafill reagent dispenser (Integra), thus reducing the final peptide concentration 10-fold to the range 1024–0.03125 µg/mL. […] The growth of M. smegmatis was measured using the BacTiter-Glo luminescence test system (Promega, Madison, WI, USA). The growth of the other species was determined by visual inspection of the microtiter plate and turbidimetry based on the optical density at 600 nm (OD600). The MIC was defined as the peptide concentration at which no bacterial growth was observed. We supplemented the test medium with either 150 mM NaCl or 1.25 mM CaCl2 to represent monovalent and divalent cations to simulate physiological conditions.

[2] = test system: Acinetobacter baumannii ATCC 19606; format: cell-based; details: CAMB, 18 h, 37 °C, n = 4
Method: as §1, §2

[3] = test system: Enterococcus faecium DSM 17050; format: cell-based; details: CAMB, 18 h, 37 °C, n = 4
Method: as §1, §2

[4] = test system: Listeria monocytogenes DSM 20600; format: cell-based; details: CAMB, 18 h, 37 °C, n = 4
Method: as §1, §2

[5] = test system: Klebsiella pneumoniae DSM 30104; format: cell-based; details: CAMB, 18 h, 37 °C, n = 4
Method: as §1, §2

[6] = test system: Staphylococcus epidermidis ATCC 35984; format: cell-based; details: CAMB, 18 h, 37 °C, n = 4
Method: as §1, §2

[7] = test system: Staphylococcus aureus ATCC 25923; format: cell-based; details: CAMB, 18 h, 37 °C, n = 4
Method: as §1, §2

[8] = test system: Proteus mirabilis DSM 4479; format: cell-based; details: CAMB, 18 h, 37 °C, n = 4
Method: as §1, §2

[9] = test system: Pseudomonas aeruginosa ATCC 27853; format: cell-based; details: CAMB, 18 h, 37 °C, n = 4
Method: as §1, §2

reference strains = assay: MIC, several reference strains; format: cell-based; details: reference strains of Table 2
Method: as §1
(§3) The MIC values were determined in 384-well microtiter plates with an assay volume of 20 µL. […] The growth of M. smegmatis was measured using the BacTiter-Glo luminescence test system (Promega, Madison, WI, USA). The growth of the other species was determined by visual inspection of the microtiter plate and turbidimetry based on the optical density at 600 nm (OD600). […]

S. aureus ATCC 33592 = format: cell-based, Staphylococcus aureus; details: CAMB, 18 h, 37 °C, n = 4
Method: as §1, §2

[10] = test system: Micrococus luteus DSM 20030; format: cell-based, Micrococcus luteus; details: CAMB, 18 h, 37 °C, n = 4
Method: as §1, §3

Canida albicans FH2173 = format: cell-based, Candida albicans; details: CAMB, 24 h, 37 °C, n = 4
Method: as §1, §2

E. coli ATCC 25922 = test system: E. coli ATCC 25922
Method: as §1
The MIC values were determined in 384-well microtiter plates with an assay volume of 20 µL. Immediately before each assay, the cultures of test organisms (bacteria grown for 18 h, Candida albicans and M. smegmatis grown for 48 h) were diluted with the appropriate medium to a density of 1 × 10^6 cells/mL (C. albicans), 1 × 10^5 cells/mL (M. smegmatis) or 5 × 10^5 cells per mL (other species). The peptides were dissolved in sterile water at a concentration of 10.24 mg/mL and a 1:2 dilution series was prepared in a 384-well microtiter plate to achieve the concentration range 10,240–0.3125 µg/mL in a volume of 50 µL. We transferred 2-µL aliquots from this dilution series to new 384-well microtiter plates while using a CyBio-Well 384-channel automated pipettor (Analytic Jena, Jena, Germany) and added 18 µL of the diluted suspension of each test species using a Viafill reagent dispenser (Integra), thus reducing the final peptide concentration 10-fold to the range 1024–0.03125 µg/mL. The cells were incubated at 37 °C and 85% relative humidity, shaking at 180 rpm for 48 h (M. smegmatis), 24 h (C. albicans) or 18 h (other species). The growth of M. smegmatis was measured using the BacTiter-Glo luminescence test system (Promega, Madison, WI, USA). The growth of the other species was determined by visual inspection of the microtiter plate and turbidimetry based on the optical density at 600 nm (OD600). […] We supplemented the test medium with either 150 mM NaCl or 1.25 mM CaCl2 to represent monovalent and divalent cations to simulate physiological conditions.

AACSLGSLLNVGCNSCACAAHCLATRGKNGACNSQRRCVCNK (disulfide (positions not given here)) [EtDef1]
MIC [1]: >128 µg/mL
MIC [2]: >128 µg/mL
MIC [3]: >128 µg/mL
MIC [4]: >128 µg/mL
MIC [5]: >128 µg/mL
MIC [6]: >128 µg/mL
MIC [7]: >128 µg/mL
MIC [8]: >128 µg/mL
MIC [9]: >128 µg/mL
activity against the test strains (reference strains): inactive
MIC (S. aureus ATCC 33592): >128 µg/mL
MIC [10]: >128 µg/mL
MIC (Canida albicans FH2173): >128 µg/mL
MIC (E. coli ATCC 25922; CAMB + A000160918 [4 µg/mL]): >256 µg/mL
MIC (E. coli ATCC 25922; CAMB + A000161246 [4 µg/mL]): >256 µg/mL
MIC (E. coli ATCC 25922; CAMB + A000173031A [4 µg/mL]): >256 µg/mL
MIC (E. coli ATCC 25922; CAMB + A000173033A [4 µg/mL]): >256 µg/mL
MIC (E. coli ATCC 25922; CAMB + A000173039A [0.25 µg/mL]): >256 µg/mL
MIC (E. coli ATCC 25922; CAMB + A000173380A [4 µg/mL]): >256 µg/mL
MIC (E. coli ATCC 25922; CAMB + A000498432A [4 µg/mL]): >256 µg/mL
MIC (E. coli ATCC 25922; CAMB + A000499933A [0.0625 µg/mL]): >256 µg/mL
MIC (E. coli ATCC 25922; CAMB + A000500059A [0.0625 µg/mL]): >256 µg/mL
MIC (E. coli ATCC 25922; CAMB + A000500146A [0.0625 µg/mL]): 128 µg/mL
MIC (E. coli ATCC 25922; CAMB + A000501181A [4 µg/mL]): >256 µg/mL
MIC (E. coli ATCC 25922; CAMB + Colistin E1 [0.016 µg/mL]): 128 µg/mL
MIC (E. coli ATCC 25922; CAMB + Colistin E2 [0.016 µg/mL]): 4 µg/mL
MIC (E. coli ATCC 25922; CAMB + PMB [0.016 µg/mL]): 1 µg/mL
MIC (E. coli ATCC 25922; CAMB + PMBN [4 µg/mL]): >256 µg/mL
MIC (E. coli ATCC 25922; CAMB, 18 h, 37 °C, n = 4): >128 µg/mL
MIC (E. coli ATCC 25922; Table 6, CAMB): >256 µg/mL
